Laboratory results as given in article PMC5017749, “Preclinical Metabolism, Pharmacokinetics and In Vivo Analysis of New Blood-Brain-Barrier Penetrant Fingolimod Analogues: FTY720-C2 and FTY720-Mitoxy” (PLoS ONE, 2016).
Read-outs that look alike come from different tables or passages of the source.

Legend:
[1] = Metabolite profiling and identification in rat hepatocytes; type: in vitro ADME, rat (Sprague Dawley); set-up: key to Source (peak identified in rat hepatocytes): R = Rat; hr = Human; lowercase letter indicates low abundance; h: lowercase letter indicates low abundance; conditions: for Percent Distribution (1 hr incubation) Rat / Percent Distribution (2 hr incubation) Rat: relative abundance among metabolites of the parent (1 μM), equal LC/MS sensitivity assumed
Procedure: (§1) Cryopreserved hepatocytes were grown in culture and incubations were performed to generate samples to measure the formation of FTY720-C2 and FTY720-Mitoxy metabolites. Incubations of 1 mL medium containing 1 million cells and 1 μM of FTY720-C2 and FTY720-Mitoxy were conducted at 37° C in a 5% CO2 incubator for 0, 1 and 2 hr, with gentle shaking. Positive control incubations used a cocktail solution containing 10 μM testosterone and 10 μM diclofenac performed for 0, 1 and 2 hr, under similar conditions to confirm the metabolic activity of the hepatocytes. The reactions were terminated by adding 2 mL acetonitrile containing 0.02% formic acid, and thoroughly mixing with gentle vortexing. Samples were transferred into 6 mL vials and stored in the freezer (-70°C) overnight for protein precipitation. Following overnight precipitations, samples were centrifuged at 3,000 rpm for 10 min to pellet proteins. Supernatants were transferred into clean 6 mL vials and evaporated to dryness using a TurboVap concentrator system. Samples were reconstituted using 600 μL 20% acetonitrile in water, briefly vortexed to resuspend, then aliquoted for LC-MS/MS analysis. Controls incubations also included “No drug control” and “no cell control” samples treated in a similar manner as test article samples.
(§2) Metabolite profiling and identification experiments were conducted by LC-MS/MS, composed of an HPLC system consisting of an Agilent Technologies 1200 Series Model G1322A Degasser, Agilent Technologies 1200 Series Model G1312A Binary Pump, Shimadzu HTc autosampler, and Valco Model E60 Flow Diversion Valve, and coupled to an API 4000 mass spectrometer. Separations were accomplished on a Gemini C18 column (150 × 2.0 mm, 5-μm particles; Phenomenex Inc., Torrance, CA), preceded by a SecurityGuard C18 guard column (4.0 × 2.0 mm; Phenomenex Inc.). A two-component mobile phase, consisted of a linear gradient of water containing 0.5% formic acid (v/v) and methanol:acetonitrile (1:1, v/v) containing 0.5% formic acid (v/v), was pumped at 0.3 mL/min. The first 4 min of flow was diverted away from the mass spectrometer. Analysis of the positive control samples was conducted with an HPLC system consisting of two Shimadzu LC-10ATvp pumps and a LEAP Pal autosampler. Separations were accomplished on a Luna C8(2) column (50 × 2.0 mm, 3-μm particles; Phenomenex Inc., Torrance, CA), preceded by a SecurityGuard C18 column (4.0 × 2.0 mm; Phenomenex Inc.). Separation was accomplished with a gradient of water containing 0.2% formic acid and 0.012% NH4OH (v/v) versus acetonitrile at an initial rate of 0.7 mL/min. An API 4000 QTrap mass spectrometer (AB Sciex, Foster City, CA) was used for analysis of positive control samples. Each mass spectrometer used was equipped with an electrospray ionization source and operated in the positive ionization mode. Metabolite identification experiments were performed by recording full scan mass spectral data (Q1MS) for all samples, and selected samples were analyzed to obtain product ion spectra (MS/MS) of test article metabolites identified in the full scan mass spectral data.

[2] = Metabolic stability (intrinsic clearance) in human liver microsomes; type: in vitro ADME
Procedure: (§3) Liver microsomal incubations contained 0.1mg/mL microsomal proteins and 1 μM of FTY720-C2 or FTY720-Mitoxy in 100 mM potassium phosphate buffer (pH 7.4) ± an NADPH regenerating system (3.5 mM glucose 6-phosphate, 1.3 mM NADP^+, and 0.4 units/mL glucose-6-phosphate dehydrogenase). Following incubations, reactions were terminated for analysis after 0, 10, 20, 30, and 60 min by the addition of acetonitrile containing C17 sphingosine (300 ng/mL) as the internal standard. Samples were vigorously mixed and centrifuged at 3,400 rpm for 10 min to pellet precipitated proteins. An aliquot of each supernatant was used for LC/MS analysis, for determination of the remaining FTY720-C2 and FTY720-Mitoxy. Similar incubations were performed using a cocktail solution containing 0.2 μM midazolam and 1 μM diclofenac to determine the metabolic activity of the microsomes as an additional control.
(§4) Samples resulting from liver microsomal incubations were analyzed by LC-MS/MS. Aliquots of the supernatants were injected onto an X-Bridge C18 column (2.1 × 50 mm, 3.5-μm particles) (Waters, Milford, MA), preceded by a SecurityGuard C18 guard column (4.0 × 2.0 mm; Phenomenex Inc.). Separations were accomplished with a gradient of 0.1% acetic acid in water (v/v) versus 0.1% acetic acid in acetonitrile: methanol (75:25, v/v) at a rate of 0.8 mL/min. The eluents were further applied into an equipped API 4000 QTrap mass spectrometer (AB Sciex, Foster City, CA) with electrospray ionization (ESI) interface by two coupled LC-10 AT pumps. Peak area ratios of FTY720-C2 or FTY720-Mitoxy against the C17 sphingosine internal standard were used to determine the amount of parent remaining compared to that at 0 min. The percent of FTY720-C2 or FTY720-Mitoxy remaining was calculated by dividing the peak area ratio obtained at each time point by that obtained at 0 min. The in vitro intrinsic clearance (CLint) was calculated by linear regression of the log percent of compound remaining versus time plots using Microsoft Excel, two independent experiments (n = 2) were performed for each compound and species. Then, the mean and standard deviation (SD), of two values for each condition, were calculated using Microsoft Excel with the “AVERAGE” and “STDEV” functions, respectively.

[3] = Metabolic stability (intrinsic clearance) in rat liver microsomes; type: in vitro ADME, rat (Sprague-Dawley); conditions: rat liver microsomes
Procedure: as §3, §4

[4] = Metabolite profiling and identification in human hepatocytes; type: in vitro ADME; set-up: key to Source (peak identified in human hepatocytes): R = Rat; hr = Human; lowercase letter indicates low abundance; h: lowercase letter indicates low abundance; conditions: for Percent Distribution (1 hr incubation) Human / Percent Distribution (2 hr incubation) Human: relative abundance among metabolites of the parent (1 μM), equal LC/MS sensitivity assumed
Procedure: as §1, §2

[5] = Metabolic stability (intrinsic clearance) in monkey liver microsomes; type: in vitro ADME, monkey (Cynomolgus); conditions: monkey liver microsomes
Procedure: as §3, §4

[6] = Metabolic stability (intrinsic clearance) in mouse liver microsomes; type: in vitro ADME, mouse (CD-1); conditions: mouse liver microsomes
Procedure: as §3, §4

[7] = set-up: method as in PMID 16751263; conditions: rat, single IV doses ranging from 0.3 to 4 mg/kg; cited from earlier work
[8] = human, cited from earlier work
[9] = Metabolic stability (intrinsic clearance) in dog liver microsomes; type: in vitro ADME, dog (Beagle); conditions: dog liver microsomes
Procedure: as §3, §4

[10] = rat hepatocytes, listed as FTY720-C2 C8-COOH
[11] = human hepatocytes, listed as FTY720-C2 C8-COOH
[12] = FTY720-Mitoxy incubation, Table 5
[13] = rat hepatocytes, listed as FTY720-Mitoxy C6-COOH
[14] = human hepatocytes, listed as FTY720-Mitoxy C6-COOH

SMILES	Source (peak identified in rat hepatocytes) ([1]; FTY720-C2 incubation, Table 4)	Percent Distribution (1 hr incubation) Rat ([1]; rat hepatocytes) [%]	Percent Distribution (2 hr incubation) Rat ([1]; rat hepatocytes) [%]	Source (peak identified in human hepatocytes) ([4]; FTY720-C2 incubation, Table 4)	Percent Distribution (1 hr incubation) Human ([4]; human hepatocytes) [%]	Percent Distribution (2 hr incubation) Human ([4]; human hepatocytes) [%]	Source (peak identified in rat hepatocytes) [1, 12]	Source (peak identified in human hepatocytes) [4, 12]	also measured
CCCCCCCCc1ccc(CCC(N)(CO)CO)cc1 [FTY720, Fingolimod]	–	–	–	–	–	–	–	–	phosphorylated metabolites ([1]; rat hepatocytes): identified; intrinsic clearance interpreted in words [2]: slow and low; intrinsic clearance interpreted in words [3]: slow and low; phosphorylated metabolites ([4]; human hepatocytes): identified; intrinsic clearance interpreted in words [5]: slow and low; intrinsic clearance interpreted in words [6]: slow and low; half-life [7]: ~ 20 hr; elimination half-life ([8]; after oral dosing): about 7 days; half-life ([8]; single oral doses of 1 mg): ~ 7 days; intrinsic clearance interpreted in words [9]: slow and low
CC(=O)NC(CO)(CO)CCc1ccc(CC(=O)O)cc1 [FTY720-C2 C2-carboxylic acid]	R	21.4	35.72	H	3.2	7.21	–	–	–
CC(=O)NC(CO)(CO)CCc1ccc(CCCC(=O)O)cc1 [FTY720-C2 C4-carboxylic acid]	R	9.7	12.88	H	23.7	25.57	–	–	–
CC(=O)NC(CO)(CO)CCc1ccc(CCCCCCCC(=O)O)cc1 [FTY720-C2 C8-carboxylic acid]	R	37.0	39.37	H	49.0	52.13	–	–	Percent Distribution (1 hr incubation) Rat [1, 10]: 37%; Percent Distribution (2 hr incubation) Rat [1, 10]: 39%; Percent Distribution (1 hr incubation) Human [4, 11]: 49%; Percent Distribution (2 hr incubation) Human [4, 11]: 52%
O=C(O)CCCCCc1ccc(CCC(CO)(CO)NC(=O)CC[P+](c2ccccc2)(c2ccccc2)c2ccccc2)cc1 [FTY720-Mitoxy C6-carboxylic acid]	–	83.6	79.3	–	58.6	54.8	R	H	Percent Distribution (1 hr incubation) Rat [1, 13]: 84%; Percent Distribution (2 hr incubation) Rat [1, 13]: 79%; Percent Distribution (1 hr incubation) Human [4, 14]: 59%; Percent Distribution (2 hr incubation) Human [4, 14]: 55%
O=C(O)CCCCCCCc1ccc(CCC(CO)(CO)NC(=O)CC[P+](c2ccccc2)(c2ccccc2)c2ccccc2)cc1 [FTY720-Mitoxy C8-carboxylic acid]	–	4.4	3.4	–	20.0	27.3	R	H	–
